Literature values, collected in patent publication US20260015580A1, “Methods of Producing and Using Avian Embryonic Stem Cells and Avian Telencephalic Organoids” (The Regents of the University of California, priority 2022, published 2026).

Test system: phosphorylation of ERK in C26 cells
Conditions: read-out: IC50, suppressing the phosphorylation of ERK

SMILES: O=C(NOC[C@H](O)CO)c1ccc(F)c(F)c1Nc1ccc(I)cc1F [PD0325901]
- IC50: 0.33 nM
